We go through 6 compounds from article PMC10112881 (Cell reports, 2023).

For assay [1], the system named is rat cortical neurons. The experiment in a line: Spinogenesis in cultured cortical neurons. The format is cell-based. The conditions noted are these: 10 μM, 3 h at DIV18, read 24 h after onset.
Assay [2] relates to D1/5 subtypes. The experiment in a line: G protein dissociation BRET assay. The assay is classed as cell-based, human. Background: BRET reads energy transfer from a luciferase to a nearby fluorophore.
Assay [3] deals with head-twitch response. Put plainly: Head-twitch response.
Assay [4] relates to 33 human aminergic GPCRs. The experiment in a line: Pan-aminergic GPCR functional screen. The assay is classed as cell-based. The conditions noted are these: of 33 aminergic GPCR targets tested.
Assay [5] has as its target D3 (Homo sapiens, UniProt P35462). Put plainly: G protein dissociation BRET assay. The format is cell-based. The conditions noted are these: relative to dopamine.
For assay [6], the target named is 5-HT4 (Homo sapiens, UniProt Q13639). The experiment in a line: G protein dissociation BRET assay. The assay is classed as cell-based.
Assay [7] deals with rest of the histamine and muscarinic GPCRs. Put plainly: G protein dissociation BRET assay. The format is cell-based, human.
In assay [8] the test system is HTR induced by DOI. Put plainly: Tolerance to DOI-induced HTR after repeated treatment. The conditions noted are these: 10 mg/kg/day IP 7 days, DOI 1 mg/kg challenge 24 h later.
The test system of assay [9] is head-twitch response. The note with it: cited from earlier work.
Assay [10] concerns HTR induced by DOI. The experiment in a line: Blockade of DOI-induced head-twitch response. The conditions noted are these: 0.025 or 0.25 mg/kg, DOI 1 mg/kg.
Assay [11] relates to rat cortical neurons. Put plainly: Dendritogenesis. The format is cell-based.
Assay [12] is described as follows: Open field test. The format is in vivo, C57BL/6J mice. The note with it: 0.125 mg/kg alone or with 2-Br-LSD 1 mg/kg.
A short description of assay [13]: Forced swim test. The format is in vivo, C57BL/6J mice. The note with it: 0.125 mg/kg before 2-Br-LSD 1 mg/kg, females and males.

Structures can show the parent of a compound that is named as a salt.

Chain of D3 (P35462 whole entry): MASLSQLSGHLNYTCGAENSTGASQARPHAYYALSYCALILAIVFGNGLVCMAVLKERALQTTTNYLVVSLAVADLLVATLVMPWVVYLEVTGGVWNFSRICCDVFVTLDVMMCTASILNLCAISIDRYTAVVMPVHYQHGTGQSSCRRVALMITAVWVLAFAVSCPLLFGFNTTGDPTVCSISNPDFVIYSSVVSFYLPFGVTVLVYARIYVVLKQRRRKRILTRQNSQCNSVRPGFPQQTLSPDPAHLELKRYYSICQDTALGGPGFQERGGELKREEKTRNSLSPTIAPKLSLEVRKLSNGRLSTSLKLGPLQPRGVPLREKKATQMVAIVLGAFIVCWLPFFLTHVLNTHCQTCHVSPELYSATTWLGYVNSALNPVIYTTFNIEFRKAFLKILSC
Chain of 5-HT4 (Q13639 whole entry): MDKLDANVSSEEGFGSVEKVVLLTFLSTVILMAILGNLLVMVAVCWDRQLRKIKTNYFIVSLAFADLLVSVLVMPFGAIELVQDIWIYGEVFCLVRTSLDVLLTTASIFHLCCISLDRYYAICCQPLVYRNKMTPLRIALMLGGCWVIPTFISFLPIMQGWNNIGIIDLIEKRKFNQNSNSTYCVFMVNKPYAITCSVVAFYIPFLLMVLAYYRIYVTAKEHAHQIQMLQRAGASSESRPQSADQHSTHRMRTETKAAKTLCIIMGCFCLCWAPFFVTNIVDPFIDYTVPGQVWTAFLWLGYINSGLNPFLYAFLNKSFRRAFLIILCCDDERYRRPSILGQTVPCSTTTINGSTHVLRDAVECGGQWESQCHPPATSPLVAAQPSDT

Consider `CNC1(c2ccccc2Cl)CCCCC1=O` (stereo not drawn) [ketamine, Ketamine hydrochloride, reference compound], for which the spine density entry in assay [1] is “spine density increased”.
Turning to `CCN(CC)C(=O)[C@@H]1C=C2c3cccc4[nH]cc(c34)C[C@H]2N(C)C1.CCN(CC)C(=O)[C@@H]1C=C2c3cccc4[nH]cc(c34)C[C@H]2N(C)C1.O=C(O)C(O)C(O)C(=O)O` [LSD, (+)-lysergic acid diethylamide (2:1) (+)-tartrate, reference compound], the “agonism at D1/5 subtypes” value in assay [2] is reported as “demonstrates agonist activity”. Besides, the “induction of the HTR” value in assay [3] (0.1 mg/kg IP, male C57BL/6J mice, 60 min) is on record as “significant increase in HTR counts”. Besides, in assay [4], the “number of aminergic GPCR targets with agonist activity” value is on record as 20. In [5], the EMAX is 75%. For the same compound, the “activity at 5-HT4” value in [6] is “lack potent agonist or antagonist activity”. Further, in assay [7], the “agonism or antagonism at the rest of the histamine and muscarinic GPCRs” value was “neither 2-Br-LSD nor LSD possessed weak agonism or antagonism”.
As to `COc1ccccc1N1CCN(CCN(C(=O)C2CCCCC2)c2ccccn2)CC1.O=C(O)/C=C\C(=O)O` [WAY-100,635, N-[2-[4-(2-Methoxyphenyl)-1-piperazinyl]ethyl]-N-(2-pyridinyl)cyclohexanecarboxamide maleate, reference compound], in assay [3] (1 mg/kg WAY-100,635, then 2-Br-LSD 3 mg/kg), the “effect of pre-treatment on the response to 2-Br-LSD in the HTR assay” value is listed as “had no effect”.
On to `COc1cc(CC(C)N)c(OC)cc1I.Cl` (racemic) [DOI, (±)-2,5-Dimethoxy-4-iodoamphetamine hydrochloride, reference compound], for which the “tolerance on HTR after repeated treatment” value in assay [8] is recorded as “significant degree of tachyphylaxis”.
Turning to `CCCN1CCC[C@@H]2Cc3n[nH]cc3C[C@H]21` [(–)-quinpirole, (–)-quinpirole hydrochloride, reference compound], the “effect on the HTR induced by LSD” value in assay [9] is reported as “does not alter the HTR”. The “reduction of the response to DOI” value in [10] was ~ 20%.
On to `COc1cccc([C@H](O)C2CCN(CCc3ccc(F)cc3)CC2)c1OC` [Vol, volinanserin, reference compound], for which the “dendritic arbor complexity, administered alone” value in assay [11] (0.1–1 μM) was “did not change any parameter linked to dendritic arbor complexity”. Further, the “effect of pre-treatment on 2-Br-LSD-induced total dendrite length” value in [11] (before 2-Br-LSD 1 μM) was “blocked the increase in total dendrite length”. In addition, the “locomotion in the OF” value in assay [12] is “Neither Vol nor a combination of Vol and 2-Br-LSD affected locomotion”. Besides, the “effect of pre-treatment on 2-Br-LSD decrease in immobility” value in assay [13] is reported as “blocked the decrease in immobility”.
